Data from patent US10329302B2, “Bicyclic-fused heteroaryl or aryl compounds” (Pfizer Inc., priority 2014, dated 2019).
Where two headings read alike, the source gives them in different places.

Molecular target: human IRAK4 kinase domain (aa 154-460) (Homo sapiens (Human), UniProt Q9NWZ3)
Experiment: IRAK4 Enzymatic DELFIA Assay, Protocol B
Assay type: biochemical
Source text: IRAK4 Enzymatic DELFIA Assay, Protocol B.

[1] = human IRAK4 kinase domain (aa 154-460), 0.6 mM ATP (KM), read-out: IRAK4 DELFIA Protocol B IC50

Sequence of human IRAK4 kinase domain (aa 154-460) (Q9NWZ3 154-460): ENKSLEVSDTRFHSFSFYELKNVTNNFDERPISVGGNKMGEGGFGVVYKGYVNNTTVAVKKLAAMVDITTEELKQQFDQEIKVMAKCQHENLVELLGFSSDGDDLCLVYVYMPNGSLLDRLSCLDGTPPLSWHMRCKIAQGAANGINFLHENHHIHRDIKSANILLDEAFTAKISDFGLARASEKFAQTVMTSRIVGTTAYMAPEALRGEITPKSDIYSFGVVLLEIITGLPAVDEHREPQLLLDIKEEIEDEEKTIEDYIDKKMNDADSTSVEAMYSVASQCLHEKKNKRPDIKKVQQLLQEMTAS

## CO[C@H]1CN(C(=O)CC#N)C[C@@H]1COc1nccc2cc(C(N)=O)c(OC(C)C)cc12 [Example 84, 1-{[(3R,4R)-1-(cyanoacetyl)-4-methoxypyrrolidin-3-yl]methoxy}-7-(propan-2-yloxy)isoquinoline-6-carboxamide]
[1]
  IC50: 534 nM

## CC(C)Oc1cc2c(OC[C@H]3CCCO3)ccnc2cc1C(N)=O [Example 15, 6-(propan-2-yloxy)-4-[(2R)-tetrahydrofuran-2-ylmethoxy]quinoline-7-carboxamide]
[1]
  IC50: 2970 nM

## CC(C)Oc1cc2c(OCC3(C)CCC3)ccnc2cc1C(N)=O [Example 13, 4-[(1-methylcyclobutyl)methoxy]-6-(propan-2-yloxy)quinoline-7-carboxamide]
[1]
  IC50: 383 nM

## CC(C)Oc1cc2c(OC[C@@H]3CCCN(C(=O)CC#N)C3)nccc2cc1C(N)=O [Example 67, 1-{[(3R)-1-(cyanoacetyl)piperidin-3-yl]methoxy}-7-(propan-2-yloxy)isoquinoline-6-carboxamide]
[1]
  IC50: 1730 nM

## CC(C)Oc1cc2c(OC[C@@]34C[C@@H]3CN(C(=O)CC#N)C4)nccc2cc1C(N)=O [Example 77, 1-{[(1S,5S)-3-(cyanoacetyl)-3-azabicyclo[3.1.0]hex-1-yl]methoxy}-7-(propan-2-yloxy)isoquinoline-6-carboxamide]
[1]
  IC50: 468 nM

## CC(C)Oc1cc2c(OC[C@@H]3CCNC3)nccc2cc1C(N)=O [Example 117, 7-(propan-2-yloxy)-1-[(3R)-pyrrolidin-3-ylmethoxy]isoquinoline-6-carboxamide]
[1]
  IC50: 136 nM

## CC(C)Oc1cc2c(OC[C@H]3CCCO3)nccc2cc1C(N)=O [Example 30, 7-(propan-2-yloxy)-1-[(2R)-tetrahydrofuran-2-ylmethoxy]isoquinoline-6-carboxamide]
[1]
  IC50: 2440 nM

## CC(C)Oc1cc2c(OC[C@H]3CCNC3)ccnc2cc1C(N)=O [Example 50, 6-(propan-2-yloxy)-4-[(3S)-pyrrolidin-3-ylmethoxy]quinoline-7-carboxamide]
[1]
  IC50: 701 nM

## CC(C)Oc1cc2c(OC[C@H]3CN(C(=O)CC#N)C[C@@H]3C)ccnc2cc1C(N)=O [Example 88, 4-{[(3R,4R)-1-(cyanoacetyl)-4-methylpyrrolidin-3-yl]methoxy}-6-(propan-2-yloxy)quinoline-7-carboxamide]
[1]
  IC50: 292 nM

## CC(C)Oc1cc2c(O[C@H]3CC[C@@H]4CN(C(=O)CC#N)C[C@@H]43)nccc2cc1C(N)=O [Example 79, 1-{[(3aR,4S,6aS)-2-(cyanoacetyl)octahydrocyclopenta[c]pyrrol-4-yl]oxy}-7-(propan-2-yloxy)isoquinoline-6-carboxamide]
[1]
  IC50: 457 nM

## CC(C)Oc1cc2c(OCC3CCC3)ccnc2cc1C(N)=O [Example 9, 4-(cyclobutylmethoxy)-6-(propan-2-yloxy)quinoline-7-carboxamide]
[1]
  IC50: 598 nM

## CC[C@H]1CN(C(=O)CC#N)C[C@@H]1COc1nccc2cc(C(N)=O)c(OC(C)C)cc12 [Example 80, 1-{[(3R,4R)-1-(cyanoacetyl)-4-ethylpyrrolidin-3-yl]methoxy}-7-(propan-2-yloxy)isoquinoline-6-carboxamide]
[1]
  IC50: 333 nM

## CC(C)Oc1cc2c(OCC3(F)CCN(C(=O)CC#N)CC3)nccc2cc1C(N)=O [Example 76, 1-{[1-(cyanoacetyl)-4-fluoropiperidin-4-yl]methoxy}-7-(propan-2-yloxy)isoquinoline-6-carboxamide]
[1]
  IC50: 1720 nM

## CC(C)Oc1cc2c(OC[C@H]3CNC(=O)O3)ccnc2cc1C(N)=O [Example 57, 4-{[(5R)-2-oxo-1,3-oxazolidin-5-yl]methoxy}-6-(propan-2-yloxy)quinoline-7-carboxamide]
[1]
  IC50: 5.8 nM

## CC(C)Oc1cc2c(OCC3CCN(C(=O)CC#N)CC3)ccnc2cc1C(N)=O [Example 100, 4-{[1-(cyanoacetyl)piperidin-4-yl]methoxy}-6-(propan-2-yloxy)quinoline-7-carboxamide]
[1]
  IC50: 482 nM

## CC(C)Oc1cc2c(OC[C@H]3CCNC3)nccc2cc1C(N)=O [Example 49, 7-(propan-2-yloxy)-1-[(3S)-pyrrolidin-3-ylmethoxy]isoquinoline-6-carboxamide]
[1]
  IC50: 451 nM

## CC(C)Oc1cc2c(OCC3(C)COC3)ccnc2cc1C(N)=O [Example 12, 4-[(3-methyloxetan-3-yl)methoxy]-6-(propan-2-yloxy)quinoline-7-carboxamide]
[1]
  IC50: 1040 nM

## CC(C)Oc1cc2c(OC[C@H]3[C@@H]4CNC[C@@H]43)nccc2cc1C(N)=O [Example 42, 1-[(1R,5S,6r)-3-azabicyclo[3.1.0]hex-6-ylmethoxy]-7-(propan-2-yloxy)isoquinoline-6-carboxamide]
[1]
  IC50: 219 nM

## CC(C)Oc1cc2c(O[C@@H]3CC4CCC3C4)ccnc2cc1C(N)=O (stereo partly drawn) [Example 14, 4-[(2R)-bicyclo[2.2.1]hept-2-yloxy]-6-(propan-2-yloxy)quinoline-7-carboxamide]
[1]
  IC50: 231 nM

## CC(C)Oc1cc2c(OCC3CCOC3)ccnc2cc1C(N)=O (stereo not shown) [Example 10, 6-(propan-2-yloxy)-4-(tetrahydrofuran-3-ylmethoxy)quinoline-7-carboxamide]
[1]
  IC50: 752 nM

## CC(C)Oc1cc2c(OC[C@H]3CCCNC3)ccnc2cc1C(N)=O [Example 2, 4-[(3S)-piperidin-3-ylmethoxy]-6-(propan-2-yloxy)quinoline-7-carboxamide]
[1]
  IC50: 4500 nM

## CC(C)Oc1cc2c(OCC3(C)CCCNC3)ccnc2cc1C(N)=O (stereo not shown) [Example 58, 4-[(3-methylpiperidin-3-yl)methoxy]-6-(propan-2-yloxy)quinoline-7-carboxamide]
[1]
  IC50: 144 nM

## CC(C)Oc1cc2c(OCC3(C)CCN(C(=O)CC#N)C3)nccc2cc1C(N)=O (stereo not shown) [Example 82, 1-{[1-(cyanoacetyl)-3-methylpyrrolidin-3-yl]methoxy}-7-(propan-2-yloxy)isoquinoline-6-carboxamide]
[1]
  IC50: 969 nM

## CC(C)Oc1cc2c(OCC3(F)CCN(C(=O)CC#N)CC3)ccnc2cc1C(N)=O [Example 95, 4-{[1-(cyanoacetyl)-4-fluoropiperidin-4-yl]methoxy}-6-(propan-2-yloxy)quinoline-7-carboxamide]
[1]
  IC50: 3170 nM

## CC(C)Oc1cc2c(OCC3CN(C)CCO3)nccc2cc1C(N)=O (stereo not shown) [Example 44, 1-[(4-methylmorpholin-2-yl)methoxy]-7-(propan-2-yloxy)isoquinoline-6-carboxamide]
[1]
  IC50: 4260 nM

## CC(C)Oc1cc2c(OC[C@@H]3CNCCO3)nccc2cc1C(N)=O [Example 37, 1-[(2S)-morpholin-2-ylmethoxy]-7-(propan-2-yloxy)isoquinoline-6-carboxamide]
[1]
  IC50: 3520 nM

## CC(C)Oc1cc2c(O[C@H]3C[C@@H]4C[C@H]3CN4)nccc2cc1C(N)=O [Example 101, 1-[(1S,4S,5S)-2-azabicyclo[2.2.1]hept-5-yloxy]-7-(propan-2-yloxy)isoquinoline-6-carboxamide]
[1]
  IC50: 1180 nM

## CC(C)Oc1cc2c(OC3C[C@@H]4C[C@H]3CN(C(=O)CC#N)C4)ccnc2cc1C(N)=O (stereo in doubt) [Example 92, 4-{[(1S,5S,6S)-3-(cyanoacetyl)-3-azabicyclo[3.2.1]oct-6-yl]oxy}-6-(propan-2-yloxy)quinoline-7-carboxamide]
[1]
  IC50: 473 nM

## CC(C)Oc1cc2c(OC[C@@H]3CCN3)nccc2cc1C(N)=O [Example 119, 1-[(2S)-azetidin-2-ylmethoxy]-7-(propan-2-yloxy)isoquinoline-6-carboxamide]
[1]
  IC50: 1430 nM

## CC(C)Oc1cc2c(OC[C@H]3CCN(C(=O)CC#N)C3)nccc2cc1C(N)=O [Example 66, 1-{[(3S)-1-(cyanoacetyl)pyrrolidin-3-yl]methoxy}-7-(propan-2-yloxy)isoquinoline-6-carboxamide]
[1]
  IC50: 255 nM

## CC(C)Oc1cc2c(OC3CC[C@@H]4CN(C(=O)CC#N)C[C@H]34)ccnc2cc1C(N)=O (single isomer, unassigned) [Example 71]
  IC50: 153 nM

## CC(=O)N1CCC(COc2nccc3cc(C(N)=O)c(OC(C)C)cc23)CC1 [Example 33, 1-[(1-acetylpiperidin-4-yl)methoxy]-7-(propan-2-yloxy)isoquinoline-6-carboxamide]
[1]
  IC50: 2860 nM

## CC(C)Oc1cc2c(OC[C@H]3CNC[C@@H]3C(F)(F)F)nccc2cc1C(N)=O [Example 46, 7-(propan-2-yloxy)-1-{[(3R,4R)-4-(trifluoromethyl)pyrrolidin-3-yl]methoxy}isoquinoline-6-carboxamide]
[1]
  IC50: 237 nM

## CC(C)Oc1cc2c(O[C@@H]3C[C@H]4C[C@@H]3CN(C(=O)CC#N)C4)ccnc2cc1C(N)=O [Example 89, 4-{[(1R,5R,6R)-3-(cyanoacetyl)-3-azabicyclo[3.2.1]oct-6-yl]oxy}-6-(propan-2-yloxy)quinoline-7-carboxamide]
[1]
  IC50: 395 nM

## CC(C)Oc1cc2c(OC[C@@H]3CNCCO3)ccnc2cc1C(N)=O [Example 51, 4-[(2S)-morpholin-2-ylmethoxy]-6-(propan-2-yloxy)quinoline-7-carboxamide]
[1]
  IC50: 2410 nM

## CC(C)Oc1cc2c(OCC3CCOC3)nccc2cc1C(N)=O (stereo not shown) [Example 24, 7-(propan-2-yloxy)-1-(tetrahydrofuran-3-ylmethoxy)isoquinoline-6-carboxamide]
[1]
  IC50: 492 nM

## CC(C)Oc1cc2c(OCC3CCCN(C)C3)nccc2cc1C(N)=O (stereo not shown) [Example 45, 1-[(1-methylpiperidin-3-yl)methoxy]-7-(propan-2-yloxy)isoquinoline-6-carboxamide]
[1]
  IC50: 1920 nM

## CO[C@H]1CN(C(=O)CC#N)C[C@@H]1COc1ccnc2cc(C(N)=O)c(OC(C)C)cc12 [Example 96, 4-{[(3R,4R)-1-(cyanoacetyl)-4-methoxypyrrolidin-3-yl]methoxy}-6-(propan-2-yloxy)quinoline-7-carboxamide]
[1]
  IC50: 301 nM

## CC(C)Oc1cc2c(OC[C@@H]3CC(C)C(=O)N3)nccc2cc1C(N)=O (stereo partly drawn) [Example 107, 1-{[(2S)-4-methyl-5-oxopyrrolidin-2-yl]methoxy}-7-(propan-2-yloxy)isoquinoline-6-carboxamide]
[1]
  IC50: 16 nM

## CC(C)Oc1cc2c(OC3C4CC5C(C4)C53)ccnc2cc1C(N)=O (stereo not shown) [Example 17, 6-(propan-2-yloxy)-4-(tricyclo[2.2.1.0~2,6~]hept-3-yloxy)quinoline-7-carboxamide]
  IC50: 476 nM
